# Laboratory results: patent publication US20240374535A1, “COMPOSITIONS AND METHODS FOR TREATING BIOFILM DISORDERS AND INFECTIONS” (AHV International B.V., priority 2021, published 2024)
# Tests used:
# [1] = test system: Pseudomonas aeruginosa ATCC 27853 biofilm; assay: MBEC assay (biofilm eradication, CFU log reduction); format: cell-based, P. aeruginosa; settings: 48 h grown biofilm, 20 h treatment, CFU log reduction vs untreated
# Protocol: (§1) The exact weighed amount was noted and the volume of solvent to reach a 80 mM dilution calculated. Half of the volume was added first, by adding Tween 80. In a second step, the other half of the volume DMSO was added and the closed tube inverted 5-10 times and then vortexed very thoroughly for at least 30 seconds. If after this procedure unsolved material was still visible, the tube was placed in a shaker at 37° C. at 150 rpm for at least 30 minutes. […] For the MBEC assay (method 1.3) the solution needs to be diluted to a final concentration of 2 mM in 0.9% saline solution and then further diluted to 1 mM, 0.5 mM, 0.25 mM and 0.125 mM in saline. Those dilutions were added as treatment to the 96 well plates with the grown biofilm (see method 3).
# (§2) Frozen aliquots of Staphylococcus epidermis ATCC 35984 and Pseudomonas aeruginosa ATCC 27853 were used to inoculate 20 mL of Tryptic Soy Broth (TSB) in a 100 mL Erlenmeyer flask at 37° C. and 150 rpm and incubated overnight (Infors). The OD600 of the overnight culture was measured with a spectrophotometer (Evolution™ 201/220 UV-Visible Spectrophotometer, Thermo Fisher Scientific) and diluted to an OD600 of 0.2, which resembles 10^8 CFU/mL. The cell suspension of OD600=0.2 was seeded into a U-bottom-shaped 96 well plates by pipetting 100 μL per well in column 1-11, column 12 was filled with 100 μL medium as sterility control. The 96 well plates were sealed with adhesive polyethylene film for sealing microplates and incubated for 48 h at 37° C. at static conditions. After the biofilm growth phase, 100 μL of treatment solutions (method 1) were added to the vials resulting in treatment concentrations of 1 mM, 0.5 mM, 0.25 mM and 0.125 mM and with the respective concentration of Tween 80 and DMSO each at 0.63%, 0.32%, 0.16% and 0.08%. The same concentration was applied to four different wells of the same bacterial strain, resulting in four replicates for each concentration and strain. The treatment was incubated for 20 h at 37° C. at static conditions. After the treatment the supernatant was carefully removed and the well with the biofilm washed carefully for one time with 200 μL 0.9% saline solution. 200 μL saline solution was added and the biofilm was resuspended thoroughly. When fully homogenized then 20 μL was used for the first dilution in 180 μL 0.9% saline solution, which was prepared in a second plate. This dilution was continued until dilution step 10E−5 and 100 μL of the 10E−4 and 10E−5 dilution plated on a TSA plate. The TSA plates were incubated at 37° C. for 24 h. The colonies on the plates were enumerated, the colony forming units per mL of the dispensed biofilm and averages thereof and the log reduction in comparison with the untreated sample from the same wells plate calculated. Reduction of colony forming units goes hand in hand with the thickness of the biofilm and thus with the number bacteria that are present in the biofilm. Therefore, a significant reduction of colony forming units in the biofilm was defined at the value of log reduction ≥1 or more. This assay was repeated two times in two independent experiments)
# [2] = test system: udder cleft wound; assay: In vivo udder cleft dermatitis test: wound assessment after spray treatment; parameters: species or system cow
# Protocol: An example of a biofilm-related disorder is Udder Cleft Dermatitis (UCD), which relates to a chronic wound. In this Example, di-alkyl thiosulfonates, dialkyl thiosulfinates and di-alkyl disulfides were tested for their effect on cows affected by UCD.
# Experiments were performed to examine the effect of various sprays containing water (control), a test compound, or a reference compound (CTC spray, which contains chlorotetracycline hydrochloride, and was obtained from Dechra veterinary products).
# 0.35 mL of the spray was sprayed on an udder cleft wound per treatment. Treatments took place once a day at t=0, at t=3 days and t=6 days. In Table 6, the assessment qualifications that are used in Table 7, are explained.
# [3] = test system: Pseudomonas aeruginosa ATCC 27853; assay: MIC assay (planktonic growth inhibition, OD600); format: cell-based, P. aeruginosa; settings: Pseudomonas aeruginosa, ATCC27853, 24 h at 37° C.
# Protocol: as §1
# (§3) Frozen aliquots of Staphylococcus epidermis ATCC 35984 and Pseudomonas aeruginosa ATCC 27853 were used to inoculate a tryptic soy agar (TSA) plate and incubated overnight at 37° C. After incubation 3-5 well-isolated colonies with the same morphology were selected from the TSA plate and resuspended in 2 mL 0.9% saline solution with 3-6 glass beads and vortexed. The optical density at 600 nm (OD600) of the bacterial suspension was measured with a spectrophotometer (Evolution™ 201/220 UV-Visible Spectrophotometer, Thermo Fisher Scientific) and diluted to an OD600 of 0.0008, which resembles 10^6 CFU/mL.
# (§4) The MIC assay was performed in a flat-bottom 96-microtiter plate. 50 μL of MHB-II was added into columns 2-11, and 100 μL to column 12 for sterility control. 100 μL of the 8 mM test compound solution (method 1) was added to column 1. A two-fold dilution series of the solution in MHB-II was achieved by resuspending 50 μL of the 8 mM solution from column 1 to column 2. This step was repeated until column 10. The respective concentration of Tween 80 and DMSO in column 1 was 2.5%, which is two-fold diluted throughout the plate. 50 μL of the bacterial suspension was added to column 1-11. The microtiter plates were sealed with adhesive polyethylene film for sealing microplates (Diversified Biotech) and incubated for 24 h at 37° C. After incubation the OD was measured at 600 nm with the Varioskan (Thermo Fisher Scientific). […] This assay was repeated three times in three independent experiments.
# [4] = test system: cows with a SCC of more as 250.000 cells/ml; assay: In vivo mastitis test: somatic cell count (SCC) in milk after a single oral tablet; parameters: species or system cow; settings: single oral tablet (10 g), 60 days, FIG. 1
# Protocol: Experiments were performed to examine the effect of compounds on the cell count or somatic cell count (SCC) in milk.
# Somatic cell counts (SCC) is related to the amount of pathogens that are in the quarter visible for the immune system. The cell count of each cow was measured with the milk production registration (MPR). This MPR is done periodically every 30-40 days at all farms. The Somatic Cell Count (SCC) is a main indicator of milk quality. The majority of somatic cells are leukocytes (white blood cells)—which become present in increasing numbers in milk usually as an immune response to a mastitis-causing pathogen—and a small number of epithelial cells, which are milk-producing cells shed from inside of the udder when an infection occurs.
# The SCC data was extracted from milk production registrations (MPRs). MPRs are databases showing all details (e.g. SCC) of the produced milk per individual cow. MPRs of the selected farms were available periodically. SCC is quantified as the number of cells per ml of milk. In general terms: an individual cow with a value for SCC of 100,000 or less indicates an ‘uninfected’ cow and there were no significant production losses due to subclinical mastitis. A threshold SCC above 250,000 indicates infection and counts between 100,000 to 250,000 indicate a high risk of infection.
# The experiments were performed on a farm with 90 cows. Examination was performed on cell count with the above described tablets during 60 days.
# Cows with a SCC of more as 250.000 cells/ml before treatment were selected for administration of a single tablet.
# [5] = test system: Staphylococcus epidermis ATCC 35984 biofilm; assay: MBEC assay (biofilm eradication, CFU log reduction); format: cell-based, S. epidermidis; settings: 48 h grown biofilm, 20 h treatment, CFU log reduction vs untreated
# Protocol: as §1, §2
# [6] = test system: Staphylococcus epidermis ATCC 35984; assay: MIC assay (planktonic growth inhibition, OD600); format: cell-based, S. epidermidis; settings: 24 h at 37° C.
# Protocol: as §1, §3, §4
smiles,measurement,setting,value
"O=[SH](O)=S.c1ccc(-c2ccccc2)cc1 [Di-phenyl thiosulfonate, phenyl benzene thiosulfonate]",P. aeruginosa MBEC mM with log reduction ≥1,[1],>4 mM
same,inflammation of the udder cleft wound after treatment,"[2]; immediately after the treatment, later infection reduced and wound healed",fast inflammation reduction
same,Conclusion (effect on udder cleft wound),"[2]; over 60 days, all cows of the group",Positive effect
same,MIC50,"[3]; minimal concentration reducing final OD600 by 50%, read-out: P. aeruginosa MIC50",2000 µM
same,MIC90,"[3]; minimal concentration reducing final OD600 by 90%, read-out: P. aeruginosa MIC90",2000 µM
same,somatic cell count (SCC) of milk,[4],significantly decreased
same,S. epidermidis MBEC mM with log reduction ≥1,[5],2 mM
same,MIC50,"[6]; minimal concentration reducing final OD600 by 50%, read-out: S. epidermidis MIC50",1000 µM
same,MIC90,"[6]; minimal concentration reducing final OD600 by 90%, read-out: S. epidermidis MIC90",2000 µM
